Source: patent publication US12447152B2, “Pharmaceutical combination of PRMT5 inhibitors” (Lupin Limited, priority 2019, dated 2025)

Key:
[1] = tested on: MIA PaCa-2 human pancreatic cancer xenograft; assay: In vivo efficacy study of Compound-24 with Afatinib, MIA PaCa-2 xenograft; set-up: species or system nude mice
Procedure: Compound-24 (1 mg/kg; b.i.d.), Afatinib (12.5 mg/kg; q.d.) and Compound-24+Afatinib (Compound-24; 1 mg/kg; b.i.d+Afatinib; 12.5 mg/kg; q.d.).

[2] = tested on: MIA PaCa-2 human pancreatic cancer xenograft; assay: In vivo efficacy study of Compound-24 with Ulixertinib (BVD-523), MIA PaCa-2 xenograft (tumor fragments); set-up: species or system nude mice; details: Compound-24 alone, 1 mg/kg b.i.d.
Procedure: MIA PaCa-2 tumor fragments were implanted subcutaneously in nude mice. […] Compound-24 (1 mg/kg; b.i.d.), BVD-523 (25 mg/kg; b.i.d.) and Compound-24+BVD-523 (Compound-24; 1 mg/kg; b.i.d+BVD-523; 25 mg/kg; b.i.d.).

[3] = tested on: MIA PaCa-2 human pancreatic cancer xenograft; assay: In vivo efficacy study of Compound-24 with BI-3406, MIA PaCa-2 xenograft; details: Compound-24 alone, 1 mg/kg; day 15
Source text: The tumor-bearing mice were randomized once the tumors reached an average volume of approximately 155-159 mm^3 (Tumor volume range 107-248 mm^3).

Row | SMILES | % tumor growth inhibition ([1]; Afatinib alone, 12.5 mg/kg q.d.) [%] | % tumor growth inhibition ([1]; Compound-24 alone, 1 mg/kg b.i.d.) [%] | % tumor growth inhibition [2] [%] | % tumor growth inhibition [3] [%]
1 | CN(C)C/C=C/C(=O)Nc1cc2c(Nc3ccc(F)c(Cl)c3)ncnc2cc1O[C@H]1CCOC1 [Afatinib, (E)-N-(4-(3-chloro-4-fluoroanilino)-7-[(3S)-oxolan-3-yl)oxoquinazolin-6-yl)-4-(dimethylamino)but-2-enamide, reference compound] | 58.68±5.14 | – | – | –
2 | Nc1nc2cc(CCC3=C[C@@H](n4ccc5c(N)ncnc54)[C@H](O)[C@@H]3O)cc(F)c2cc1Cl [Compound-24, (1S,2R,5R)-3-(2-(2-Amino-3-chloro-5-fluoroquinolin-7-yl)ethyl)-5-(4-amino-7H-pyrrolo[2,3-d]pyrimidin-7-yl)cyclopent-3-ene-1,2-diol] | – | 48.03±5.75 | 58.83±9.92 | 47.88±12.12
